Measured values as given in patent US20230286955A1, “INHIBITORS OF THEM1” (Cornell University, priority 2022, published 2023).
“Also recorded” adds a separate entry of the source.

Legend:
[1] = tested on: primary brown adipocytes cultured from A-Them1Tg mice; experiment: Oxygen consumption rates (OCR) in primary brown adipocytes; assay type: cell-based, mouse
Protocol: Primary brown adipocytes from 4- to 6-w old wild type and A-Them1Tg mice were isolated, cultured and differentiated as described (Okada et al., 2016). In brief, BAT tissues harvested from 5- to 7-w old mice were pooled, minced and digested with collagenase B (Sigma-Aldrich; St. Louis, MO), and dispersed in growth medium [DMEM/F12 containing 4.5 g/L glucose, 0.1 mM pyruvate, 10 mM HEPES (Thermo Fisher; Waltham, MA) supplemented with 1% penicillin/streptomycin, 1% GlutaMAX (Thermo Fisher; Waltham, MA) and 20% fetal bovine serum]. […] Upon achieving confluence, pre-adipocytes were induced to differentiate for 8 d by culturing for the first 48 h in differentiation medium [DMEM/F12 containing 4.5 g/L glucose, 0.1 mM pyruvate, 10 mM HEPES (Thermo Fisher; Waltham, MA) supplemented with 1% penicillin/streptomycin, 1% GlutaMAX (Thermo Fisher; Waltham, MA), 10% fetal bovine serum, bovine insulin (5 μg/mL; Thermo Fisher; Waltham, MA) and rosiglitazone (1 μM; Sigma Aldrich; St. Louis, MO)] supplemented with dexamethasone (5 μM; Sigma Aldrich; St. Louis, MO) and 3-isobutyl-1-methylxanthine (0.5 mM; Sigma Aldrich; St. Louis, MO) and differentiation medium thereafter. On differentiation d 6 to 8, the adipocyte differentiation media was supplemented with L-(−)-norepinephrine (+) bitartrate (Calbiochem; EMD Millipore; Billerica, MA). Primary brown adipocytes were maintained in a cell culture incubator at 37° C. with 5% CO2.
In primary brown adipocytes on d 8 of differentiation, values of OCR were measured in the presence or absence of compounds using a Seahorse XF96 extracellular flux analyzer (Agilent Technologies; Santa Clara, CA). […] OCR values were measured before and after the exposure of cells to NE (1 μM) and normalized with total live cell count calculated through staining with NucRed Live probe (Thermo Fisher; Waltham, MA) measured at 715 nm emission and 623 nm excitation using a SpectraMax i3X plate reader (Molecular Devices; San Jose; CA).

[2] = tested on: primary hepatocytes; experiment: Oxygen consumption rates (OCR) in primary hepatocytes after palmitate; assay type: cell-based, mouse; conditions: compound 33 μM, palmitate-BSA 300 μM
Protocol: (§1) Primary hepatocytes cultured were prepared from 6- to 14-w old wild type, L-Them1Tg and Them1^−/− mice following anesthesia with ketamine and xylazine. Livers were perfused through the portal vein with 20 mL of liver perfusion medium (Thermo Fisher; Walham, MA) followed by 40 mL of liver digestion medium (Thermo Fisher; Walham, MA). Primary hepatocytes were gently disrupted from the liver capsule into hepatocyte wash medium (Thermo Fisher; Waltham, MA), filtered through a 70 μm cell strainer and then spun down at 30×g for 4 min at 4° C. Primary hepatocytes were cultured in William's Medium E (Thermo Fisher; Waltham, MA) supplemented with 1% penicillin/streptomycin and 10% fetal bovine serum. […] Cultured primary hepatocytes were maintained in a cell culture incubator at 37° C. with 5% CO2.
In primary hepatocytes, values of OCR were measured using a Seahorse XF24 extracellular flux analyzer (Agilent Technologies; Santa Clara, CA). […] OCR values were measured before and after the exposure of cells to palmitic acid conjugated with fatty acid-free BSA (300 μM) and normalized with total live cell count calculated through staining with NucRed Live probe (Thermo Fisher; Waltham, MA) measured at 715 nm emission and 623 nm excitation using a SpectraMax i3X plate reader (Molecular Devices; San Jose; CA).

[3] = tested on: primary hepatocytes; experiment: Glucose production in primary hepatocytes; assay type: cell-based, mouse; conditions: compound 33 μM, pyruvate 2 mM, lactate 20 mM
Protocol: as §1
Rates of glucose production were determined as previously described with modifications (Kawano et al., 2014). Primary hepatocytes cultured from wild type, L-Them1Tg and Them1^−/' mice were serum-starved in Medium 199 (Thermo Fisher; Waltham, MA) for 16 h and then washed twice with PBS. […] Glucose concentrations in the media were measured enzymatically through a commercial kit according to the manufacturer's instructions using a NEO plate reader (BioTek, Winooski, VT).

[4] = target: T1, recombinant His-tagged human Them1 (Homo sapiens, UniProt Q8WXI4); experiment: Assay for reversibility of Them1 inhibition (dialysis); assay type: biochemical; conditions: compounds […], C14-CoA 25 μM, 18 h dialysis
T1 construct: Reaction labeling recombinant full-length Them1; made in house; host or cells: E. coli Shuffle T7
T1 sequence (Q8WXI4 14-594 isoform Q8WXI4-2 limits assumed): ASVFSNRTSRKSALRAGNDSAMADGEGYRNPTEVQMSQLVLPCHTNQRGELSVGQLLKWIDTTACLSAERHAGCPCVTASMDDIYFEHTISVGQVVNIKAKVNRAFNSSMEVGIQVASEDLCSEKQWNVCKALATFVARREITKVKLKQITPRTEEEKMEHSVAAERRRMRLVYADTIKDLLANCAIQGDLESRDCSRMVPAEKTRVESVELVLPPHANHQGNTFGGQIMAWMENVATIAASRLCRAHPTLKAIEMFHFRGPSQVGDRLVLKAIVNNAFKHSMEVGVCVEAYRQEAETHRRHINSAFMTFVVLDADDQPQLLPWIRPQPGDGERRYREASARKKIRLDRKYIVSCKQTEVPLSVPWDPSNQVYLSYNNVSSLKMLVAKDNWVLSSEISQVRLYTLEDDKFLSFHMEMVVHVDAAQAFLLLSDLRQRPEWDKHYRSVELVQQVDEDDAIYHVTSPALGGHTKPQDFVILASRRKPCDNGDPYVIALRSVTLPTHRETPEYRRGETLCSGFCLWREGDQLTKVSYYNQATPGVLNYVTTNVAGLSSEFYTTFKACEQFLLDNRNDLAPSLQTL
Protocol: Three buffer changes were performed over the extent of the 18 h dialysis. Post-dialysis reactions were incubated with fresh C14-CoA (25 μM) for 60 min at 22° C. Ebselen (Sigma Aldrich; St. Louis, MO) was used as a (−) control.

[5] = target: T2, recombinant mouse Them1 (Mus musculus, UniProt Q8VHQ9); experiment: Acot activity assay, mouse Them1; assay type: biochemical; conditions: in words (FIG. 6B)
T2 construct: made in house; host or cells: E. coli BL21 (DE3)
T2 sequence (Q8VHQ9 21-594): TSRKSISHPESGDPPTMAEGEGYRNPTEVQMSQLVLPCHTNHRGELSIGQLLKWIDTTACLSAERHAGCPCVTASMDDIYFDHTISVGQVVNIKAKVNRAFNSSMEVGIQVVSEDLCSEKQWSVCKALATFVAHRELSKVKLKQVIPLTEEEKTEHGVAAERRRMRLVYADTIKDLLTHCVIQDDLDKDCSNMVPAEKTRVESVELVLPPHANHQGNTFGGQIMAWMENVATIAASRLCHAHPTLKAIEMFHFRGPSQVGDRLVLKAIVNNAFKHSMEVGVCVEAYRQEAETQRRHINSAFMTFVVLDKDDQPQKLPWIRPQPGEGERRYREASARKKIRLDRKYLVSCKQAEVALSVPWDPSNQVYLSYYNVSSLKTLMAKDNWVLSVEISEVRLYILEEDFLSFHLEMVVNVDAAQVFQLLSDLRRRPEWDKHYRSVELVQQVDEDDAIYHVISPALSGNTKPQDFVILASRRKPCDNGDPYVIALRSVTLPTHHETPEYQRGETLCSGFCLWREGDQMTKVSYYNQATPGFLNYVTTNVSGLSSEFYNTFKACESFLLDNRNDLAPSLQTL
Excerpt: (Zhang et al., 1999). Values are show in the following Table.

[6] = in vitro; conditions: C57BL/6, mouse, primary brown adipocytes
Protocol: Cytotoxicities of compounds were determined using a CellTiter-Glo® Luminescent Cell Viability Assay, which measures concentrations of ATP liberated from viable cells (Promega; Madison, WI). […] Tamoxifen (50 μM) was used as a (+) control. CellTiter-Glo reagent (10 μL) was added to each well and incubated on an orbital shaker for 10 min at 22° C. to induce cell lysis and stabilize the luminescent signal. Relative luminescent units (RLU) were determined using a NEO plate reader (BioTek, Winooski, VT).

[7] = target: full-length human Acot12 (Homo sapiens, UniProt Q8WYK0); experiment: biochemical
Sequence of full-length human Acot12 (Q8WYK0 whole entry, the tested form may be a part): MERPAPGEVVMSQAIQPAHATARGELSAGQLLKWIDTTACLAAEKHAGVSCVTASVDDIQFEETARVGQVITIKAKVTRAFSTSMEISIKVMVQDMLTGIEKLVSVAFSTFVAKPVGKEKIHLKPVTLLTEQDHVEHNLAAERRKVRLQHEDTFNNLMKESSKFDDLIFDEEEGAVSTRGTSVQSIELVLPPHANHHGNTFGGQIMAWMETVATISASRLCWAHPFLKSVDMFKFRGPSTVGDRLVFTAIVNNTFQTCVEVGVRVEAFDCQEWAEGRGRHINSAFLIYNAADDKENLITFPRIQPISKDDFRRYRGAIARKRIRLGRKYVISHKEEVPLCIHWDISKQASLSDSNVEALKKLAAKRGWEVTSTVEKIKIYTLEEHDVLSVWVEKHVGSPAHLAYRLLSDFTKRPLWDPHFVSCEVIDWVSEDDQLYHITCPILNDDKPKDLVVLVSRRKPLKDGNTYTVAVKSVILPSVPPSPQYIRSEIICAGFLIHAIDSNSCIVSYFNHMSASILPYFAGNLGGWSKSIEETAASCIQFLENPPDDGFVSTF
Protocol: (§2) Reaction labeling recombinant full-length Them1, Them1l-ΔSTART, START or Acot12 with Monolith RED-Tris-NTA (NanoTemper Technologies; San Francisco, CA) were performed according to the manufacturer's instructions in buffer containing PBS plus 0.5% Tween-20 for 60 min at 22° C. with a molar dye: protein ratio=1:1. […] Working concentrations of compounds were prepared by diluting in microscale thermophoresis buffer. Reactions consisting of 100 nM of fluorescently labeled recombinant protein (full-length Them1, Them1-ΔSTART, START or Acot12) and compounds were loaded onto standard Monolith NT.115 Capillaries (NanoTemper Technologies; San Francisco, CA). Fluorescence was measured using a Monolith NT.115 instrument (NanoTemper Technologies; San Francisco, CA) at 22° C. with instrument parameters adjusted to 40% LED power and medium microscale thermophoresis power. Data were fitted by non-linear regression in GraphPad Prism (GraphPad Software; San Diego, CA).

[8] = target: T3, Them1-ΔSTART (Homo sapiens, UniProt Q8WXI4); experiment: Microscale thermophoresis binding, Them1-ΔSTART; conditions: for binding to Them1-ΔSTART: in words; for Kd: read-out: Kd, Thioesterase domains (Them1-ΔSTART ), MST, 100 nM labeled protein, 22° C.
T3 sequence (Q8WXI4 43-329 isoform Q8WXI4-2 limits assumed): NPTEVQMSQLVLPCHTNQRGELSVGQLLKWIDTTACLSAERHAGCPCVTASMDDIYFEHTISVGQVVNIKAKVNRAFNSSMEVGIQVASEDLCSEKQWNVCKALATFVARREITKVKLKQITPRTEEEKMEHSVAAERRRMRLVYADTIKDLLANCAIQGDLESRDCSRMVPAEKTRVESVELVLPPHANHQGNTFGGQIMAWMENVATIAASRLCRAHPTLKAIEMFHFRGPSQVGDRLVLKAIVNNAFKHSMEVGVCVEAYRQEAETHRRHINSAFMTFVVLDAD
Protocol: (§3) Data represent the mean (s.e.m.) of triplicate determinations. Where not visible, error bars are contained within the symbol sizes.
as §2

[9] = target: T4, full-length Them1 (Homo sapiens, UniProt Q8WXI4); experiment: biochemical
T4 sequence (Q8WXI4 14-594 isoform Q8WXI4-2 limits assumed): T1 sequence (Q8WXI4 14-594 isoform Q8WXI4-2 limits assumed)
Protocol: as §3, §2

[10] = target: T5, Them1 START domain (Homo sapiens, UniProt Q8WXI4); experiment: Microscale thermophoresis binding, START domain; conditions: in words
T5 sequence (Q8WXI4 339-594 isoform Q8WXI4-2): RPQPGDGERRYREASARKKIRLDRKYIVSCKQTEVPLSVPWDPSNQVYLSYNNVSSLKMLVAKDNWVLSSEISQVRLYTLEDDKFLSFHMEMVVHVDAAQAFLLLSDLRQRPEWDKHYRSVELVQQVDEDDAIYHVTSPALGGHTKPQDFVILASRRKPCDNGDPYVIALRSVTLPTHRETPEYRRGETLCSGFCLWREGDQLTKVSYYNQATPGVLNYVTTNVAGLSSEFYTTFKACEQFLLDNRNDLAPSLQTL
Excerpt: A synthetic gene encoding the START domain was cloned into a pNIC28-Bsa4 bacterial expression vector (Novagen, EMD Biosciences; Madison, WI), which introduced an in-frame N-terminal His6 fusion containing a tobacco etch virus protease cleavage site to facilitate tag removal. The pNIC28-Bsa4-START domain plasmid was co-transformed into E. coli BL21 (DE3) (New England Biolabs; Ipswich, MA) competent cells with a pG-Tf2 vector (encoding groES-gorEL-tig chaperones) and then grown to an A600 of 0.5-0.7 in terrific broth. Under conditions of shaking (250 rpm) at 18° C., chaperones were induced by the addition of 5 ng/mL tetracycline HCl for 60 min followed by START domain induction upon the addition of 0.5 mM isoproyl β-D-thiogalactoside for ˜18 h. The bacteria were harvested by centrifugation, and then lysed by sonication with 20 mM Tris-Cl (pH 7.4), 500 mM NaCl, 25 mM imidazole, 5% glycerol, lysozyme, Dnase A, 0.1% Triton X-100, 5 mM β-mercaptoethanol and 100 μM phenylmethylsulfonyl fluoride. Following centrifugation of the bacterial lysate, recombinant START was purified by FPLC using a His affinity column (HisTrap HP column; GE Healthcare; Waukesha, WI). The soluble fraction containing recombinant START was applied to the column after equilibration with 20 mM Tris-Cl (pH 7.4), 500 mM NaCl, 25 mM imidazole and 5% glycerol, and then washed with the same buffer. Recombinant START was eluted from the HisTrap HP column using 20 mM Tris-Cl (pH 7.4), 500 mM NaCl, 500 mM imidazole and 5% glycerol followed by tobacco etch virus protease-mediated His-tag cleavage at 4° C. overnight with simultaneous dialysis into 20 mM Tris-Cl (pH 7.4), 500 mM NaCl and 5% glycerol. Recombinant START was further purified using a Superdex column (HiLoad 16/60 Superdex 75 column; GE Healthcare; Waukesha, WI) in 20 mM Tris-Cl (pH 7.4), 500 mM NaCl and 5% glycerol. Assessment of purity, protein concentration and storage of single use aliquots of recombinant START were performed as described above for recombinant Them1.
Reaction labeling recombinant full-length Them1, Them1l-ΔSTART, START or Acot12 with Monolith RED-Tris-NTA (NanoTemper Technologies; San Francisco, CA) were performed according to the manufacturer's instructions in buffer containing PBS plus 0.5% Tween-20 for 60 min at 22° C. with a molar dye: protein ratio=1:1. […] Working concentrations of compounds were prepared by diluting in microscale thermophoresis buffer. […] Fluorescence was measured using a Monolith NT.115 instrument (NanoTemper Technologies; San Francisco, CA) at 22° C. with instrument parameters adjusted to 40% LED power and medium microscale thermophoresis power. […]

[11] = target: T4, full-length Them1; experiment: Microscale thermophoresis binding, full-length Them1; conditions: in words
Protocol: as §3, §2

Compound | OCR in A-Them1Tg brown adipocytes, reversal of Them1 suppression ([1]; NE-stimulated, compounds at 10 μM (FIGS. 3B-C, 8B-C)) | OCR following palmitate stimulation in L-Them1Tg hepatocytes [2] | OCR following palmitate stimulation in Them1−/− hepatocytes [2] | glucose production in L-Them1Tg hepatocytes [3] | Them1 activity after overnight dialysis (reversibility of inhibition) [4] | inhibition of mouse Them1 activity compared to human Them1 [5] | CC50 at 48 h [6] [µM] | Kd [7] [µM] | binding to Them1-ΔSTART [8] | Kd [8] [µM] | OCR in A-Them1Tg brown adipocytes, reversal of Them1 suppression ([1]; compounds at their in vitro IC50 concentrations, 30 min, NE 1 μM, vs wild type (DMSO)) | Kd [9] [µM] | binding affinity to the START domain compared to the parent U1 compound [10] | Kd / binding affinity to full-length Them1 compared to the parent U1 compound [11]
CCOC(=O)N1CCN(C(c2cccs2)c2c(C)[nH]c3ccccc23)CC1 (stereo not drawn) [Compound U1, ethyl 4-((2-methyl-1H-indol-3-yl)(thiophen-2-yl)methyl)piperazine-1-carboxylate] | reversed the suppressive effects of Them1 activity | reversed this suppressive effect of Them1 | did not increase OCR values | reduced | restored Them1 activity | comparable potencies | > 125 | > 125 | lacked the capacity to bind; also recorded: lacked binding | > 125 |  |  |  | 
Cc1[nH]c2ccccc2c1C(c1cccs1)N1CCN(C(=O)C(C)C)CC1 (stereo not drawn) [Compound U11, 2-methyl-1-(4-((2-methyl-1H-indol-3-yl)(thiophen-2-yl)methyl)piperazin-1-yl)propan-1-one] |  |  |  |  |  |  | > 125 | > 125 | did not bind | > 125 | reversed the suppressive effects of Them1 on values of OCR | 0.87 | tighter | tighter
